Test results from patent US20220249418A1, “COMPOSITIONS COMPRISING AMINO ACIDS FOR USE IN THE TREATMENT OF MITOCHONDRIAL DYSFUNCTION-RELATED DISEASES” (PROFESSIONAL DIETETICS INTERNATIONAL S.R.L., priority 2017, published 2022).

Test system: HL-1 cardiomyocytes
Experiment: oxygen consumption (Clark-type oxygen electrode)
Type: cell-based, Mus musculus
Details: HL-1 cells, 48 hr treatment, normalized to protein content; FIG. 5
Procedure: HL-1 cardiomyocytes (a gift from W. C. Claycomb, New Orleans, School of Medicine) were plated in fibronectin/gelatin-coated flasks, grown to 70%-80% confluence in Claycomb medium (JRH Biosciences) supplemented with 100 μM norepinephrine (from a 10 mM norepinephrine [Sigma-Aldrich] stock solution dissolved in 30 mM L-ascorbic acid [Sigma-Aldrich]), 2 mM L-glutamine, 100 U/ml penicillin, 100 μg/ml streptomycin and 10% FBS (JRH Biosciences) as disclosed in Claycomb et al., 1998.
At the end of these periods, mRNA and DNA were extracted from the cells or the cells were used to evaluate the oxygen consumption. Control cells were treated with Claycomb medium only.
An amount of 1 ml of HL-1 cardiomyocytes treated with the compositions shown in Table 1 was re-suspended in Hank's balanced salt solution (Sigma) and spun down to pellet cells. A number of HL-1 cells was also supplemented with a nitic oxide (NO) donor, specifically with diethylenetriamine-NO also called (DETA-NO; Sigma-Aldrich, Milan, Italy), as positive control. […]
Samples were analyzed at 37° C. in a gas-tight vessel equipped with a Clark-type oxygen electrode (Rank Brothers Ltd.) connected to a chart recorder. […]
Oxygen consumption was assessed with continuous mixing for about ten minutes. […] Protein content was determined by using the bicinchoninic acid protein (BCA) assay.

For `NCCN(CCN)/[N+]([O-])=N/O` [DETA-NO, diethylenetriamine-NO], the oxygen consumption was “a rise of oxygen consumption was observed”.
